Measured values reported in patent publication US10301305B2 (priority 2014, dated 2019).
Counter-ions that a name gives are not always drawn.

Key:
Type in all cases: biochemical
[1] = biological target: S. Agalactiae DltA (Streptococcus agalactiae serotype III (strain NEM316), UniProt Q8VM67); assay: in vitro DltA activity assay (luminescence), S. agalactiae DltA; conditions: recombinant DltA, 30 min pre-incubation, 0.5 mM D-Alanine, 0.5-5 μM ATP; read-out: S. Agalactiae DltA IC50
Experimental: (§1) The effect of the compounds of the invention on DltA enzymes has been based on the measure of their inhibition of DltA activity in vitro. To this end, recombinant proteins DltA were expressed and purified after cloning of the genes of S. aureus, E. faecalis, E. faecium and S. agalactiae as described thereafter. The capacity of the compounds of the invention to inhibit DltA enzymatic activity was assessed using the DltA assays as described below:
(§2) The dltA gene was amplified from chromosomal DNA of S. aureus, E. faecalis, E. faecium and S. agalactiae and introduced into E. coli BL21 (Invitrogen, Carlsbad, Calif.) following manufacturer's instruction. Bacteria were grown at 37° C. under aerobic conditions and isopropyl-beta-D-thiogalactopyranoside (IPTG) was added to 0.5-1 mM when OD600 of the bacterial culture had reached 0.5. After a further incubation for 3 hours, cells were harvested by centrifugation. Purification of the recombinant DltA protein was performed by affinity chromatography on nickel-nitrilotriacetic acid (Ni-NTA) column following manufacturer's instructions (Qiagen). Fractions containing recombinant DltA protein were adjusted to 50% glycerol and stored at −20° C. until use.
(§3) The binding potency of the inhibitors against DltA enzyme was assessed by IC50 determination in an in vitro DltA activity assay. The assay buffer “AB” contained 50 mM Hepes pH8.0, 10 mM MgCl2, 50 mM KCl, 0.012% Triton-X100, 10 mM DTT and 100 nM Myelin-basic protein. The following components were added in a white polystyrene Costar plate up to a final volume of 30 μL: 3 μL DMSO, or inhibitor dissolved in DMSO and 27 μL DltA enzyme in AB. After 30 min of pre-incubation at room temperature, 30 μL of Substrates mix in AB were added in each well to a final volume of 60 μL. This reaction mixture was then composed of DltA (produced in house from S. aureus, E. faecalis, E. faecium and S. agalactiae), 0.5 mM D-Alanine (Sigma), 0.5-5 μM ATP (Sigma) and 0.05 u/ml inorganic pyrophosphatase (Sigma) in assay buffer. After typically 1-2 hours of incubation at room temperature (conversion rate around 30%), 30 μL of the revelation mix were added to a final volume of 90 μL, including the following constituents at the respective final concentrations: 10000 u/ml luciferase (Sigma), 30 μM D-luciferin (Sigma), 100 μM N-acetylcysteamine (Aldrich). Luminescence intensity was immediately measured on a Fluostar Optima (BMG) (excitation 360 nm, emission 520 nm) and converted into inhibition percentages. For IC50 determinations (Inhibitory Concentration 50%) the inhibitor was added at 6 to 10 different concentrations and the related inhibitions were fitted to a classical Langmuir equilibrium model using XLFIT (IDBS).
(§4) For compounds interfering with the luminescent signal (quenching), the same experiment without DltA enzyme was performed to allow quenching determination and correction.

[2] = biological target: S. aureus DltA (Staphylococcus aureus (strain NCTC 8325 / PS 47), UniProt Q2FZW6); assay: in vitro DltA activity assay (luminescence), S. aureus DltA; conditions: recombinant DltA, 30 min pre-incubation, 0.5 mM D-Alanine, 0.5-5 μM ATP; read-out: S. aureus DltA IC50
Experimental: as §1, §2, §3, §4

[3] = biological target: E. feacalis DltA (Enterococcus faecalis, UniProt Q830N0); assay: in vitro DltA activity assay (luminescence), E. faecalis DltA; conditions: recombinant DltA, 30 min pre-incubation, 0.5 mM D-Alanine, 0.5-5 μM ATP; read-out: E. feacalis DltA IC50
Experimental: as §1, §2, §3, §4

[4] = biological target: E. feacium DltA (Enterococcus faecium, UniProt Q3XZT7); assay: in vitro DltA activity assay (luminescence), E. faecium DltA; conditions: recombinant DltA, 30 min pre-incubation, 0.5 mM D-Alanine, 0.5-5 μM ATP; read-out: E. feacium DltA IC50
Experimental: as §1, §2, §3, §4

E. feacium DltA, sequence (Q3XZT7 1-504): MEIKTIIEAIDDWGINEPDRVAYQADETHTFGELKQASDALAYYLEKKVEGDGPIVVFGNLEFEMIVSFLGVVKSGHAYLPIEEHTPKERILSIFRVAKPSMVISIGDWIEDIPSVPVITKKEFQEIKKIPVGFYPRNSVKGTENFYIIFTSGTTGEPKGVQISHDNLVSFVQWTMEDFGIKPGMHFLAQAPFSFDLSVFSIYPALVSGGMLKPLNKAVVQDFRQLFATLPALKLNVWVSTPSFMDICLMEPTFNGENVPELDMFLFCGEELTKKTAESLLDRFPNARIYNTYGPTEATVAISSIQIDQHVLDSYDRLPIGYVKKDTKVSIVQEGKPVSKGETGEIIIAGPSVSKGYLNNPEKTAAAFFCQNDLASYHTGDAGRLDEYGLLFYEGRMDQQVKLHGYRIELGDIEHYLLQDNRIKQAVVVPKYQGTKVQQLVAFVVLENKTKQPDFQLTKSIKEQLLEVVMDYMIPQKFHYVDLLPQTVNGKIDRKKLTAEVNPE
E. feacalis DltA, sequence (Q830N0 1-506): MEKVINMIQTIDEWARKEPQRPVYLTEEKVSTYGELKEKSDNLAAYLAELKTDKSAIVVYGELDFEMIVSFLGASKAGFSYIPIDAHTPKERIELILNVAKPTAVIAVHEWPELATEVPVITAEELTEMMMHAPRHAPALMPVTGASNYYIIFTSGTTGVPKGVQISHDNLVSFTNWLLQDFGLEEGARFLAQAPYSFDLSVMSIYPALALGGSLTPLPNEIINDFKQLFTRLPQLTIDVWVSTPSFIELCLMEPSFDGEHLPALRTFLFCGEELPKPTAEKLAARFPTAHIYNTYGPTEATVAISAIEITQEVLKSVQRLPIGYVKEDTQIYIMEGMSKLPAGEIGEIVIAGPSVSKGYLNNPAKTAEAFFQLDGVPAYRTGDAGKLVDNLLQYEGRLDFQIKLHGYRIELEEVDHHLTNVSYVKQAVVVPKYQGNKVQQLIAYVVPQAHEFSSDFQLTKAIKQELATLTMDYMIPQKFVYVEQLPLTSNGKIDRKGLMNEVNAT

| SMILES | IC50 [1] [nM] | IC50 [2] [nM] | IC50 [3] [nM] | IC50 [4] [nM] |
| --- | --- | --- | --- | --- |
| C[C@H]1CCCC(n2cnc3cc(-c4cc(N(C)CCN(C)C)c(C(N)=O)c5[nH]cnc45)ccc32)C1 (mixture of isomers) [Example 136] | 360 | 5.7 |  |  |
| OC[C@H]1CCN(c2cc(-c3ccc4c(c3)ncn4C3CCCCC3)c3nc[nH]c3n2)C[C@@H]1O [Example 2, (3R,4R)-1-[7-(1-Cyclohexyl-1H-benzimidazol-5-yl)-3H-imidazo[4,5-b]pyridin-5-yl]-4-hydroxymethyl-piperidin-3-ol] | 500 | 66 | 18 | 86 |
| OCC1CCN(c2cc(-c3ccc4c(c3)ncn4C3CCCCC3)c3nc[nH]c3n2)CC1 [Example 3, {1-[7-(1-Cyclohexyl-1H-benzimidazol-5-yl)-3H-imidazo[4,5-b]pyridin-5-yl]-piperidin-4-yl}-methanol] | 1400 | 200 | 52 | 100 |
| OCCNc1cc(-c2ccc3c(c2)ncn3C2CCCCC2)c2nc[nH]c2n1 [Example 4, 2-[7-(1-Cyclohexyl-1H-benzimidazol-5-yl)-3H-imidazo[4,5-b]pyridin-5-ylamino]-ethanol] | 3100 | 520 | 380 | 2200 |
| OCC1(CO)CCN(c2cc(-c3ccc4c(c3)ncn4C3CCCCC3)c3nc[nH]c3n2)CC1 [Example 6, {1-[7-(1-Cyclohexyl-1H-benzimidazol-5-yl)-3H-imidazo[4,5-b]pyridin-5-yl]-4-hydroxymethyl-piperidin-4-yl}-methanol] | 180 | 11 | 18 | 29 |
| OCCC1CCN(c2cc(-c3ccc4c(c3)ncn4C3CCCCC3)c3nc[nH]c3n2)C1 (stereo not shown) [Example 10, 2-{1-[7-(1-Cyclohexyl-1H-benzimidazol-5-yl)-3H-imidazo[4,5-b]pyridin-5-yl]-pyrrolidin-3-yl}-ethanol] | 3800 | 160 | 72 | 120 |
| c1nc2c(-c3ccc4c(c3)ncn4C3CCCCC3)cc(N3CC4CNCC4C3)nc2[nH]1 (stereo not shown) [Example 11, 7-(1-Cyclohexyl-1H-benzimidazol-5-yl)-5-(hexahydro-pyrrolo[3,4-c]pyrrol-2-yl)-3H-imidazo[4,5-b]pyridine] | 260 | 1.4 | 19 | 30 |
| OC[C@H]1CCN(c2cc3[nH]cnc3c(-c3ccc4c(c3)ncn4C3CCCCC3)n2)C[C@@H]1O [Example 19, (3R,4R)-1-[4-(1-Cyclohexyl-1H-benzimidazol-5-yl)-1H-imidazo[4,5-c]pyridin-6-yl]-4-hydroxymethyl-piperidin-3-ol] | 1900 | 33 | 460 | 1800 |
| OCC1(CO)CCN(c2cc3[nH]cnc3c(-c3ccc4c(c3)ncn4C3CCCCC3)n2)CC1 [Example 20, {1-[4-(1-Cyclohexyl-1H-benzimidazol-5-yl)-1H-imidazo[4,5-c]pyridin-6-yl]-4-hydroxymethyl-piperidin-4-yl}-methanol] | 290 | 12 | 56 | 170 |
| c1nc2c(-c3ccc4c(c3)ncn4C3CCCCC3)nc(N3CC4CNCC4C3)cc2[nH]1 (stereo not shown) [Example 24, 4-(1-Cyclohexyl-1H-benzimidazol-5-yl)-6-(hexahydro-pyrrolo[3,4-c]pyrrol-2-yl)-1H-imidazo[4,5-c]pyridine] | 5200 | 38 | 570 | 3700 |
| OCC1(CO)CCN(c2cc(-c3ccc4c(c3)ncn4C3CCCCC3)c3nc[nH]c3c2)CC1 [Example 34, [1-(1′-Cyclohexyl-1H,1′H-[4,5′]bibenzimidazolyl-6-yl)-4-hydroxymethyl-piperidin-4-yl]-methanol] | 380 | 110 | 79 | 170 |
| c1nc2c(-c3ccc4c(c3)ncn4C3CCCCC3)cc(N3CC4CNCC4C3)cc2[nH]1 (stereo not shown) [Example 36, 1′-Cyclohexyl-6-(hexahydro-pyrrolo[3,4-c]pyrrol-2-yl)-1H,1′H-[4,5′]bibenzimidazolyl] | 3800 | 80 | 170 | 1100 |
| O=[N+]([O-])c1c(N2CC[C@H](CO)C2)cc(-c2ccc3c(c2)ncn3C2CCCCC2)c2nc[nH]c12 [Example 43, [(S)-1-(1′-Cyclohexyl-7-nitro-1H,1′H-[4,5′]bibenzimidazolyl-6-yl)-pyrrolidin-3-yl]-methanol] | 6300 | 85 | 30 | 170 |
| O=[N+]([O-])c1c(N2CC[C@H](CO)[C@@H](O)C2)cc(-c2ccc3c(c2)ncn3C2CCCCC2)c2nc[nH]c12 [Example 44, (3R,4R)-1-(1′-Cyclohexyl-7-nitro-1H,1′H-[4,5′]bibenzimidazolyl-6-yl)-4-hydroxymethyl-piperidin-3-ol] | 1500 | 49 | 71 | 96 |
| O=C(O)c1c(N2CC[C@H](CO)C2)cc(-c2ccc3c(c2)ncn3C2CCCCC2)c2nc[nH]c12 [Example 55, 1′-Cyclohexyl-6-((S)-3-hydroxymethyl-pyrrolidin-1-yl)-1H,1′H-[4,5′]bibenzimidazolyl-7-carboxylic acid] | 760 | 250 | 150 | 360 |
| N#Cc1c(N2CC[C@H](CO)C2)cc(-c2ccc3c(c2)ncn3C2CCCCC2)c2nc[nH]c12 [Example 58, 1′-Cyclohexyl-6-((S)-3-hydroxymethyl-pyrrolidin-1-yl)-1H,1′H-[4,5′]bibenzimidazolyl-7-carbonitrile] | 8600 | 180 | 120 | 230 |
| N#Cc1c(N2CCC(CO)(CO)CC2)cc(-c2ccc3c(c2)ncn3C2CCCCC2)c2nc[nH]c12 [Example 61, 6-(4,4-Bis-hydroxymethyl-piperidin-1-yl)-1′-cyclohexyl-1H,1′H-[4,5′]bibenzimidazolyl-7-carbonitrile] | 4700 | 240 | 110 | 230 |
| NC(=O)c1c(F)cc(-c2ccc3c(c2)ncn3C2CCCCC2)c2nc[nH]c12 [Example 63, 1′-Cyclohexyl-6-fluoro-1H,1′H-[4,5′]bibenzimidazolyl-7-carboxamide] | 2000 | 49 | 43 | 83 |
| NC(=O)c1c(N2CC[C@H](CO)C2)cc(-c2ccc3c(c2)ncn3C2CCCCC2)c2nc[nH]c12 [Example 64, 1′-Cyclohexyl-6-((S)-3-hydroxymethyl-pyrrolidin-1-yl)-1H,1′H-[4,5′]bibenzimidazolyl-7-carboxamide] | 710 | 65 | 27 | 68 |
| NC(=O)c1c(N2CC3CNCC3C2)cc(-c2ccc3c(c2)ncn3C2CCCCC2)c2nc[nH]c12 (stereo not shown) [Example 65, 1′-Cyclohexyl-6-(hexahydro-pyrrolo[3,4-c]pyrrol-2-yl)-1H,1′H-[4,5′]bibenzimidazolyl-7-carboxylic acid amide hydrochloride] | 1800 | 66 | 36 | 140 |
| CCn1cnc2cc(-c3cc(OCCN(C)C)c(C(N)=O)c4[nH]cnc34)ccc21 [Example 198, 6-(2-Dimethylamino-ethoxy)-1′-ethyl-1H,1′H-[4,5′]]bibenzimidazolyl-7-carboxamide methanesulfonic acid salt] | 1400 |  |  |  |
